Reference: ChEMBL document CHEMBL4616724, “Topoisomerase Inhibitors Addressing Fluoroquinolone Resistance in Gram-Negative Bacteria” (J Med Chem, 2020)
In brackets after ≈: the same amount, converted by molar mass.

Legend:
[1] = tested on: Klebsiella oxytoca; experiment: Antibacterial activity against Klebsiella oxytoca clinical isolates by CLSI-based broth microdilution assay; type: functional
[2] = n-Octanol-PBS buffer partition coefficient, log D of the compound at pH 7.4 after overnight incubation by LC/UV/qTOF analysis; type: physicochemical
[3] = Solubility of the compound in pH 7 PBS incubated for 24 hrs under gently shaking condition by UPLC/UV/CLND/MS analysis; type: physicochemical; conditions: PBS, pH 7
[4] = Intrinsic clearance in rat liver microsomes at 1 uM in presence of NADPH and measured up to 30 mins by LC-MS/MS analysis; type: ADME, Microsome; conditions: read-out: CLH
[5] = Terminal half life in mouse at 5 mg/kg, iv measured up to 24 hrs by LC-MS/MS analysis; type: ADME, organism-based; conditions: in vivo, read-out: beta t1/2 (converted)
[6] = target: DNA gyrase (Escherichia coli, UniProt P0AES4+P0AES6); experiment: Inhibition of recombinant full-length C-terminal His6-tagged Escherichia coli DNA gyrase AB supercoiling activity using relaxed DNA as substrate preincubated for 30 mins followed by substrate addition and measured after 2 hrs in presence of ATP by size exclusion HPLC analysis; type: protein-complex assay
[7] = Dose normalized AUC in rat at 10 mg/kg, po measured up to 24 hrs by LC-MS/MS analysis; type: ADME, organism-based; conditions: in vivo
[8] = tested on: Escherichia coli; experiment: Ratio of MIC for antibacterial activity against wild type Escherichia coli ATCC 25922 at pH 5.8 to MIC for antibacterial activity against wild type Escherichia coli ATCC 25922 at pH 7.4; type: functional
[9] = tested on: MOLT-4; experiment: Cytotoxicity against human MOLT4 cells assessed as reduction in cell viability after 72 hrs by Cell-titer Glo assay; type: cell-based; conditions: MOLT-4, 72 h
[10] = tested on: Morganella morganii; experiment: Antibacterial activity against Morganella morganii clinical isolates by CLSI-based broth microdilution assay; type: functional
[11] = Dark toxicity in BALB/c mouse 3T3 cells assessed as reduction in cell viability incubated for 1 hr prior to 50 mins incubation under dark condition followed by replacement of medium and measured after 24 hrs by neutral red uptake assay; type: cell-based, NIH3T3; conditions: BALB/c 3T3 cells

Molecule Cc1c(N2CC3CC3(N)C2)c(F)cc2c(CN)c(F)c(=O)n(C3CC3)c12 (stereo not given) has an MIC [1] of 0.06 to 32 µg/mL (≈ 0.166 to 88.8 µM), an MIC50 [1] of 1 µg/mL (≈ 2.77 µM) and an MIC90 [1] of 8 µg/mL (≈ 22.2 µM). It also gave a logD [2] of 1.1, a solubility at 24 h [3] of 1280 µg/mL (≈ 3540 µM) and a microsomal CLint at 1 µM [4] of 117 µL/min/mg. It also gave a half-life [5] of 1.7 h, an IC50 [6] of 1.25 µM and an AUC/dose [7] of 0.1 µM·h/mg/kg. The Ratio [8] was 512, the EC50 [9] was 29 µM and the MIC [10] was 0.06 to 32 µg/mL (≈ 0.166 to 88.8 µM). The MIC50 [10] was 1 µg/mL (≈ 2.77 µM), the MIC90 [10] was 8 µg/mL (≈ 22.2 µM) and the IC50 at 110 min [11] was 1000 µM.
